Results taken from patent publication US6802882B2, “Nitrification inhibitors, and the use of polyacids which contain a nitrification inhibitor for the treatment of inorganic fertilizers” (BASF Aktiengesellschaft, priority 1996, dated 2004).

What was measured:
[1] = Storage stability rapid test of treated inorganic fertilizers (loss of nitrification inhibitor); type: physicochemical; conditions: on ammonium sulfate nitrate carrier fertilizer; 4 weeks at 30° C., 40 to 50% relative atmospheric humidity, approx. 1.2 m/s air velocity
Description: The carrier fertilizer used was ammonium sulfate nitrate (ASN). 2 g of pyrazole were dissolved in a little water, and if desired (see Table I) the solution was mixed with a stoichiometric amount of phosphoric acid (1:1) and with from 1 to 10 g of polyacrylic acid or polyphosphoric acid. […] of the carrier fertilizer in the form of granules were prewarmed to approximately 50° C. and slowly sprayed onto a turntable with the mixture containing the pyrazole compound. To accelerate the drying, drying was carried out with hot air, either at the end of the spraying or after interruption of the spraying.
The storage stability of the treated inorganic fertilizers was determined in a rapid test in which the nitrification-inhibited inorganic fertilizers were stored in a ventilated warming cabinet for 4 weeks at 30° C., from 40 to 50% relative atmospheric humidity and approximately 1.2 m/s air velocity. The concentration of nitrification inhibitor on the inorganic fertilizer was determined before and after storage and the loss of nitrification inhibitor determined in percent. Approximately 10 to 30 g of treated inorganic fertilizer were stored in each case. The concentration of pyrazole compound as nitrification inhibitor in this case was from 0.05% by weight to 0.2% by weight at the start of the investigation, based on the treated inorganic fertilizer.

nitrification [2] = assay: Nitrification inhibiting effect of different pyrazoles; design: concentration or dose not given beside the values
nitrification [3] = assay: Field tests: NO3- and NH4-N-amounts in soil; type: in vivo; conditions: for Ø NH4-N amount in soil / Ø NO3-N amount in soil: n = 5, locations 1-5; for biological effectiveness (in words): field tests, results of table 1, reduced amounts of the active substance versus DCD
Description: The biological effectiveness of 4-chloro-3-methylpyrazole (4 Cl-3MP) and 3,4-dimethylpyrazole (3,4-DMP) in comparison with DCD and the control was tested in multiple field tests in different environments by means of the features “nitrate content in the basis of the stem”, “NO3— and NH4—N-content in the soil” as well as “grain produce”.
The standard methods used in agricultural tests were applied to the laying-out, probing, harvesting and evaluation of the field tests.
The analysis of the plant and soil samples followed standard procedures. The remaining measures undertaken in the production, e.g. plant protection, were in accordance with good agricultural practice and were applied uniformly.

rape plants = assay: Field tests: NO3 amount in the basis of the stem of rape plants; type: in vivo; conditions: n = 5, locations 1-5
Description: (§1) The biological effectiveness of 4-chloro-3-methylpyrazole (4 Cl-3MP) and 3,4-dimethylpyrazole (3,4-DMP) in comparison with DCD and the control was tested in multiple field tests in different environments by means of the features “nitrate content in the basis of the stem”, “NO3— and NH4—N-content in the soil” as well as “grain produce”. The standard methods used in agricultural tests were applied to the laying-out, probing, harvesting and evaluation of the field tests. The analysis of the plant and soil samples followed standard procedures. The remaining measures undertaken in the production, e.g. plant protection, were in accordance with good agricultural practice and were applied uniformly. As a consequence of this treatment the nitrate consumption of the plants is reduced (compare NO3-content in the basis of the stem of rape plants, table 2) and the produce is enhanced (compare grain produce of winter wheat, tables 3a and 3b).

winter wheat = assay: Field tests: grain produce of winter wheat; type: in vivo
Description: as §1

SMILES	Loss in percent (loss of nitrification inhibitor during storage) [1] [%]	% inhibition per applied amount of ammonium (nitrification [2]; column head 1) [%]	% inhibition per applied amount of ammonium (nitrification [2]; column head 2) [%]	% inhibition per applied amount of ammonium (nitrification [2]; column head 4) [%]	% inhibition per applied amount of ammonium (nitrification [2]; column head 6) [%]	% inhibition per applied amount of ammonium (nitrification [2]; column head 8) [%]	Ø NH4-N amount in soil (nitrification [3]; 2 weeks after application) [kg/ha]	Ø NO3-N amount in soil (nitrification [3]; 2 weeks after application) [kg/ha]	Ø NH4-N amount in soil (nitrification [3]; 4 weeks after application) [kg/ha]	Ø NO3-N amount in soil (nitrification [3]; 4 weeks after application) [kg/ha]	Ø NH4-N amount in soil (nitrification [3]; 6 weeks after application) [kg/ha]	Ø NO3-N amount in soil (nitrification [3]; 6 weeks after application) [kg/ha]	Ø NH4-N amount in soil (nitrification [3]; 8 weeks after application) [kg/ha]	Ø NO3-N amount in soil (nitrification [3]; 8 weeks after application) [kg/ha]	Ø NO3 amount in the basis of the stem of rape plants (rape plants; 2 weeks after application) [ppm]	Ø NO3 amount in the basis of the stem of rape plants (rape plants; 4 weeks after application) [ppm]	Ø NO3 amount in the basis of the stem of rape plants (rape plants; 6 weeks after application) [ppm]	Ø NO3 amount in the basis of the stem of rape plants (rape plants; 8 weeks after application) [ppm]	further results
Cc1cn[nH]c1C.O=P(O)(O)O [3,4-Dimethylpyrazole phosphate, 3,4-dimethylpyrazolium dihydrogen Phosphate]	31																		
Cc1c[nH]nc1C [3,4-Dimethylpyrazole, 3,4-dimethylpyrazole]	100	88	61	48	34	27	82	54	70	43	71	44	37	28	8105	6720	4899	4454	biological effectiveness (in words) (nitrification [3]): as good as or better than that of DCD; grain produce of winter wheat (winter wheat; location 2 (lean clay)): 97.8 dt/ha
Cc1cc[nH]n1.O=P(O)(O)O [3-Methylpyrazole phosphate, reference compound]	55																		
Cc1cc[nH]n1 [3-Methylpyrazole, reference compound]	100	90	58	45	27	22													
Cc1[nH]ncc1Cl.O=P(O)(O)O [4-Chloro-3-methylpyrazole phosphate, 4-chloro-3-methylpyrazolium dihydrogen Phosphate]	92	91	62	53	45	27													
Cc1n[nH]cc1Cl [4-Chloro-3-methylpyrazole, 4-chloro-3-methylpyrazole]	100	88	66	48	32	21	115	61	79	50	76	39	40	28	8112	6629	4774	4276	biological effectiveness (in words) (nitrification [3]): as good as or better than that of DCD; grain produce of winter wheat (winter wheat; location 4 (loamy sand)): 56.0 dt/ha
N#CN=C(N)N [DCD, reference compound]							87	47	68	44	82	35	39	29	8036	7022	4728	4274	grain produce of winter wheat (winter wheat; location 2 (lean clay)): 94.3 dt/ha; grain produce of winter wheat (winter wheat; location 4 (loamy sand)): 52.6 dt/ha
Cc1nn(CO)cc1Cl [N-hydroxy-4Cl-3MP, N-hydroxymethyl-4-chloro-3-methylpyrazole]		87	58	45	30	15													
Cc1cn(CO)nc1C [N-hydroxyl-3,4-DMP, N-hydroxymethyl-3,4-dimethylpyrazole]		85	54	40	31	10													
